Laboratory results reported in patent publication US20240358693A1, “METHODS OF TREATING PAIN” (Aisa Pharma, Inc., priority 2023, published 2024).

System: participants with SSc-RP
Test: Scleroderma Health Assessment Questionnaire (SHAQ): disability indices and visual analog scales
Format: in vivo, human
Settings: Part A, sensitivity analysis
In short: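 Participants with SSc-RP completed the SHAQ at screening and each in-clinic visit. Standard and alternative disability indices (eight categories, 0–3; standard adjusts for aids/assistance) plus Raynaud's VAS on interference over the past 7 days. Reported as absolute change from baseline to end of each dosing period.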

[1] = PP Population, cilnidipine 10 mg and/or tadalafil 5 mg as labelled
[2] = PP Population, cilnidipine 20 mg, plus tadalafil 5 mg where labelled
[3] = PP Population, pooled cilnidipine 10 mg and 20 mg arms (plus tadalafil 5 mg where labelled)
[4] = Pooled Cilnidipine 10 mg and Cilnidipine 10 mg + Tadalafil 5 mg (N = 9), Modified ITT

`COCCOC(=O)C1=C(C)NC(C)=C(C(=O)OC/C=C/c2ccccc2)C1c1cccc([N+](=O)[O-])c1` (stereo not drawn) [Cilnidipine, cilnidipine] was tested, and the “SHAQ Visual Analogue Scale - Intestinal Problems: Change from Baseline (Day 12), Median” value [1] was −1.550, the “SHAQ Visual Analogue Scale - Intestinal Problems: In-Clinic Visit (Day 12), Mean” value [1] was 1.100 and the “SHAQ Visual Analogue Scale - Intestinal Problems: In-Clinic Visit (Day 12), Median” value [1] was 0.300. The “SHAQ Visual Analogue Scale - Intestinal Problems: Percent Change from Baseline (Day 12), Mean” value [1] was −77.37%, the “SHAQ Visual Analogue Scale - Intestinal Problems: Percent Change from Baseline (Day 12), Median” value [1] was −88.00% and the “SHAQ Visual Analogue Scale - Overall Disease Severity: Baseline, Mean” value [1] was 2.725. For the same compound, the “SHAQ Visual Analogue Scale - Overall Disease Severity: Baseline, Median” value [1] was 1.900, the “SHAQ Visual Analogue Scale - Overall Disease Severity: Change from Baseline (Day 12), Mean” value [1] was −0.900 and the “SHAQ Visual Analogue Scale - Overall Disease Severity: Change from Baseline (Day 12), Median” value [1] was −0.950. For the same compound, the “SHAQ Visual Analogue Scale - Overall Disease Severity: In-Clinic Visit (Day 12), Mean” value [1] was 1.825, the “SHAQ Visual Analogue Scale - Overall Disease Severity: In-Clinic Visit (Day 12), Median” value [1] was 1.050 and the “SHAQ Visual Analogue Scale - Overall Disease Severity: Percent Change from Baseline (Day 12), Mean” value [1] was −56.96%. For the same compound, the “SHAQ Visual Analogue Scale - Overall Disease Severity: Percent Change from Baseline (Day 12), Median” value [1] was −44.12%, the “SHAQ Visual Analogue Scale - Raynaud's: Baseline, Mean” value [1] was 1.600 and the “SHAQ Visual Analogue Scale - Raynaud's: Baseline, Median” value [1] was 1.000. The “SHAQ Visual Analogue Scale - Raynaud's: Change from Baseline (Day 12), Mean” value [1] was 0.325, the “SHAQ Visual Analogue Scale - Raynaud's: Change from Baseline (Day 12), Median” value [1] was 0.350 and the “SHAQ Visual Analogue Scale - Raynaud's: In-Clinic Visit (Day 12), Mean” value [1] was 1.925. For the same compound, the “SHAQ Visual Analogue Scale - Raynaud's: In-Clinic Visit (Day 12), Median” value [1] was 1.700, the “SHAQ Visual Analogue Scale - Raynaud's: Percent Change from Baseline (Day 12), Mean” value [1] was 11.36% and the “SHAQ Visual Analogue Scale - Raynaud's: Percent Change from Baseline (Day 12), Median” value [1] was −2.27%. The “SHAQ Visual Analogue Scale - Breathing Problems: Baseline, Mean” value [2] was 1.325, the “SHAQ Visual Analogue Scale - Breathing Problems: Baseline, Median” value [2] was 1.550 and the “SHAQ Visual Analogue Scale - Breathing Problems: Change from Baseline (Day 12), Mean” value [2] was −0.475. For the same compound, the “SHAQ Visual Analogue Scale - Breathing Problems: Change from Baseline (Day 12), Median” value [2] was −0.250, the “SHAQ Visual Analogue Scale - Breathing Problems: In-Clinic Visit (Day 12), Mean” value [2] was 0.850 and the “SHAQ Visual Analogue Scale - Breathing Problems: In-Clinic Visit (Day 12), Median” value [2] was 0.450. The “SHAQ Visual Analogue Scale - Breathing Problems: Percent Change from Baseline (Day 12), Mean” value [2] was 3.73%, the “SHAQ Visual Analogue Scale - Breathing Problems: Percent Change from Baseline (Day 12), Median” value [2] was −17.54% and the “SHAQ Visual Analogue Scale - Finger Ulcers: Baseline, Mean” value [2] was 1.800. The “SHAQ Visual Analogue Scale - Finger Ulcers: Baseline, Median” value [2] was 0.300, the “SHAQ Visual Analogue Scale - Finger Ulcers: Change from Baseline (Day 12), Mean” value [2] was −0.933 and the “SHAQ Visual Analogue Scale - Finger Ulcers: Change from Baseline (Day 12), Median” value [2] was 0.000. For the same compound, the “SHAQ Visual Analogue Scale - Finger Ulcers: In-Clinic Visit (Day 12), Mean” value [2] was 0.650, the “SHAQ Visual Analogue Scale - Finger Ulcers: In-Clinic Visit (Day 12), Median” value [2] was 0.350 and the “SHAQ Visual Analogue Scale - Finger Ulcers: Percent Change from Baseline (Day 12), Mean” value [2] was 35.29%. The “SHAQ Visual Analogue Scale - Finger Ulcers: Percent Change from Baseline (Day 12), Median” value [2] was 35.29%, the “SHAQ Visual Analogue Scale - Intestinal Problems: Baseline, Mean” value [2] was 0.700 and the “SHAQ Visual Analogue Scale - Intestinal Problems: Baseline, Median” value [2] was 0.650. The “SHAQ Visual Analogue Scale - Intestinal Problems: Change from Baseline (Day 12), Mean” value [2] was 0.150, the “SHAQ Visual Analogue Scale - Intestinal Problems: Change from Baseline (Day 12), Median” value [2] was 0.150 and the “SHAQ Visual Analogue Scale - Intestinal Problems: In-Clinic Visit (Day 12), Mean” value [2] was 0.850. The “SHAQ Visual Analogue Scale - Intestinal Problems: In-Clinic Visit (Day 12), Median” value [2] was 0.650, the “SHAQ Visual Analogue Scale - Intestinal Problems: Percent Change from Baseline (Day 12), Mean” value [2] was −10.00% and the “SHAQ Visual Analogue Scale - Intestinal Problems: Percent Change from Baseline (Day 12), Median” value [2] was 30.00%. The “SHAQ Visual Analogue Scale - Overall Disease Severity: Baseline, Mean” value [2] was 3.125, the “SHAQ Visual Analogue Scale - Overall Disease Severity: Baseline, Median” value [2] was 2.950 and the “SHAQ Visual Analogue Scale - Overall Disease Severity: Change from Baseline (Day 12), Mean” value [2] was −2.000. For the same compound, the “SHAQ Visual Analogue Scale - Overall Disease Severity: Change from Baseline (Day 12), Median” value [2] was −1.700, the “SHAQ Visual Analogue Scale - Overall Disease Severity: In-Clinic Visit (Day 12), Mean” value [2] was 1.125 and the “SHAQ Visual Analogue Scale - Overall Disease Severity: In-Clinic Visit (Day 12), Median” value [2] was 1.300. For the same compound, the “SHAQ Visual Analogue Scale - Overall Disease Severity: Percent Change from Baseline (Day 12), Mean” value [2] was −64.20%, the “SHAQ Visual Analogue Scale - Overall Disease Severity: Percent Change from Baseline (Day 12), Median” value [2] was −64.44% and the “SHAQ Visual Analogue Scale - Raynaud's: Baseline, Mean” value [2] was 3.075. For the same compound, the “SHAQ Visual Analogue Scale - Raynaud's: Baseline, Median” value [2] was 3.000, the “SHAQ Visual Analogue Scale - Raynaud's: Change from Baseline (Day 12), Mean” value [2] was −1.200 and the “SHAQ Visual Analogue Scale - Raynaud's: Change from Baseline (Day 12), Median” value [2] was −1.050. The “SHAQ Visual Analogue Scale - Raynaud's: In-Clinic Visit (Day 12), Mean” value [2] was 1.875, the “SHAQ Visual Analogue Scale - Raynaud's: In-Clinic Visit (Day 12), Median” value [2] was 1.250 and the “SHAQ Visual Analogue Scale - Raynaud's: Percent Change from Baseline (Day 12), Mean” value [2] was −41.11%. The “SHAQ Visual Analogue Scale - Raynaud's: Percent Change from Baseline (Day 12), Median” value [2] was −38.67%, the “SHAQ Alternative Disability Index: Baseline, Mean” value [3] was 0.359 and the “SHAQ Alternative Disability Index: Baseline, Median” value [3] was 0.250. For the same compound, the “SHAQ Alternative Disability Index: Change from Baseline (Day 12), Mean” value [3] was 0.031, the “SHAQ Alternative Disability Index: Change from Baseline (Day 12), Median” value [3] was 0.000 and the “SHAQ Alternative Disability Index: In-Clinic Visit (Day 12), Mean” value [3] was 0.391. The “SHAQ Alternative Disability Index: In-Clinic Visit (Day 12), Median” value [3] was 0.188, the “SHAQ Alternative Disability Index: Percent Change from Baseline (Day 12), Mean” value [3] was 9.68% and the “SHAQ Alternative Disability Index: Percent Change from Baseline (Day 12), Median” value [3] was −11.11%. For the same compound, the “SHAQ Standard Disability Index: Baseline, Mean” value [4] was 0.597, the “SHAQ Standard Disability Index: Baseline, Median” value [4] was 0.500 and the “SHAQ Standard Disability Index: Change from Baseline, Mean” value [4] was −0.021. The “SHAQ Standard Disability Index: Change from Baseline, Median” value [4] was 0.000, the “SHAQ Standard Disability Index: Day 12, Mean” value [4] was 0.576 and the “SHAQ Standard Disability Index: Day 12, Median” value [4] was 0.375. The “SHAQ Standard Disability Index: Percent Change from Baseline, Mean” value [4] was 7.50%, the “SHAQ Standard Disability Index: Percent Change from Baseline, Median” value [4] was 0.00% and the “SHAQ VAS Breathing Problems: Baseline, Mean” value [4] was 1.511. For the same compound, the “SHAQ VAS Breathing Problems: Baseline, Median” value [4] was 0.800, the “SHAQ VAS Breathing Problems: Change from Baseline, Mean” value [4] was −0.175 and the “SHAQ VAS Breathing Problems: Change from Baseline, Median” value [4] was 0.000. For the same compound, the “SHAQ VAS Breathing Problems: Day 12, Mean” value [4] was 1.375, the “SHAQ VAS Breathing Problems: Day 12, Median” value [4] was 0.000 and the “SHAQ VAS Breathing Problems: Percent Change from Baseline, Mean” value [4] was −26.05%. The “SHAQ VAS Breathing Problems: Percent Change from Baseline, Median” value [4] was −21.33%, the “SHAQ VAS Finger Ulcers: Baseline, Mean” value [4] was 0.656 and the “SHAQ VAS Finger Ulcers: Baseline, Median” value [4] was 0.200. For the same compound, the “SHAQ VAS Finger Ulcers: Change from Baseline, Mean” value [4] was −0.267, the “SHAQ VAS Finger Ulcers: Change from Baseline, Median” value [4] was −0.100 and the “SHAQ VAS Finger Ulcers: Day 12, Mean” value [4] was 0.389. For the same compound, the “SHAQ VAS Finger Ulcers: Day 12, Median” value [4] was 0.000, the “SHAQ VAS Finger Ulcers: Percent Change from Baseline, Mean” value [4] was −46.06% and the “SHAQ VAS Finger Ulcers: Percent Change from Baseline, Median” value [4] was −31.94%. The “SHAQ VAS Intestinal Problems: Baseline, Mean” value [4] was 2.444, the “SHAQ VAS Intestinal Problems: Baseline, Median” value [4] was 1.100 and the “SHAQ VAS Intestinal Problems: Change from Baseline, Mean” value [4] was −1.228. The “SHAQ VAS Intestinal Problems: Change from Baseline, Median” value [4] was −0.250, the “SHAQ VAS Intestinal Problems: Day 12, Mean” value [4] was 1.217 and the “SHAQ VAS Intestinal Problems: Day 12, Median” value [4] was 0.700. For the same compound, the “SHAQ VAS Intestinal Problems: Percent Change from Baseline, Mean” value [4] was −27.93%, the “SHAQ VAS Intestinal Problems: Percent Change from Baseline, Median” value [4] was −54.13% and the “SHAQ VAS Overall Disease Severity: Baseline, Mean” value [4] was 3.044. For the same compound, the “SHAQ VAS Overall Disease Severity: Baseline, Median” value [4] was 1.900, the “SHAQ VAS Overall Disease Severity: Change from Baseline, Mean” value [4] was −0.606 and the “SHAQ VAS Overall Disease Severity: Change from Baseline, Median” value [4] was −0.700. For the same compound, the “SHAQ VAS Overall Disease Severity: Day 12, Mean” value [4] was 2.439, the “SHAQ VAS Overall Disease Severity: Day 12, Median” value [4] was 1.900 and the “SHAQ VAS Overall Disease Severity: Percent Change from Baseline, Mean” value [4] was −24.68%. The “SHAQ VAS Overall Disease Severity: Percent Change from Baseline, Median” value [4] was −30.93%, the “SHAQ VAS Pain: Baseline, Mean” value [4] was 3.278 and the “SHAQ VAS Pain: Baseline, Median” value [4] was 3.100. The “SHAQ VAS Pain: Change from Baseline, Mean” value [4] was −0.633, the “SHAQ VAS Pain: Change from Baseline, Median” value [4] was −0.700 and the “SHAQ VAS Pain: Day 12, Mean” value [4] was 2.644. The “SHAQ VAS Pain: Day 12, Median” value [4] was 2.900, the “SHAQ VAS Pain: Percent Change from Baseline, Mean” value [4] was −20.07% and the “SHAQ VAS Pain: Percent Change from Baseline, Median” value [4] was −21.87%. For the same compound, the “SHAQ VAS Raynaud's: Baseline, Mean” value [4] was 2.733, the “SHAQ VAS Raynaud's: Baseline, Median” value [4] was 1.400 and the “SHAQ VAS Raynaud's: Change from Baseline, Mean” value [4] was −0.414. For the same compound, the “SHAQ VAS Raynaud's: Change from Baseline, Median” value [4] was −0.100, the “SHAQ VAS Raynaud's: Day 12, Mean” value [4] was 2.319 and the “SHAQ VAS Raynaud's: Day 12, Median” value [4] was 2.600.
